Data on 28 compounds can be found in publication PMC12744908 (Journal of medicinal chemistry, 2025).

The CC50 is the concentration at which the toxic effect on the cells reaches its halfway point. A lower CC50 goes with harm at low concentration. For orientation: CLint scaled means a measure of how fast metabolising enzymes remove a compound, apart from limits set by blood flow. A word on the IC50: it is the concentration that gives 50% inhibition. By half-life is commonly meant the time in which the quantity being followed falls by half. Read a low half-life as rapid decline.

The nature of one data set: HepG2 cytotoxicity assay. The format is cell-based. Conditions: human.
Data set [1] in a line: Murine microsomal stability. The format is in vitro ADME.
Data set [2] has as its system Plasmodium yoelii. Briefly: In vivo parasite suppression at fixed dose, modified 4-day Peters test. Also noted: species or system Plasmodium yoelii (female CF1 mice). To be noted: for inhibition in vivo at 2.5 mg/kg: Plasmodium yoelii, in Mus musculus, po, 120 h, read-out: % Py Suppression; for % Py Suppression: 2.5 mg/kg/d oral, Days 1-4, parasitemia Day 5 vs vehicle control, n = 4.

In data set [3] the test system is Plasmodium yoelii. The experiment in a line: In vivo efficacy. Also on record: species or system Plasmodium yoelii (female CF1 mice). To be noted: oral once daily for 4 days, parasitemia Day 5.
Data set [4] relates to Plasmodium falciparum, Strain D6. Briefly: In vitro antiplasmodial activity, fluorescence-based SYBR Green assay, strain D6. The format is cell-based. Conditions: D6, 72 h, read-out: IC50 v D6 ± SD.
The subject of data set [5] is Plasmodium yoelii. The experiment in a line: Single dose cure. The format is in vivo, Plasmodium yoelii (female CF1 mice). Conditions: single oral dose Day 1, 0% parasitemia until Day 30.
[6] abbreviates: mouse, pooled liver microsomes, pH 7.4.

In the data set “HepG2 cytotoxicity assay” (HepG2 cells), `Clc1ccc2c(Nc3ccc(N4CCNCC4)cc3)ccnc2c1` [Compound 38, 7-chloro-N-(4-(piperazin-1-yl)phenyl)quinolin-4-amine] gave a half-maximal cytotoxic concentration (CC50) at 24 h of 54 µM.

In “HepG2 cytotoxicity assay” (HepG2 cells), `Clc1ccc2c(Nc3ccc(C4CN(Cc5ccccc5)CCO4)cc3)ccnc2c1` (centres unmarked) [Compound 15, N-(4-(4-benzylmorpholin-2-yl)phenyl)-7-chloroquinolin-4-amine] gave a cytotoxic concentration (CC50) at 24 h of 38 µM.

`Clc1ccc2c(Nc3ccc(N4CCCCC4)cc3)ccnc2c1` [Compound 34, 7-chloro-N-(4-(piperidin-1-yl)phenyl)quinolin-4-amine]: the cytotoxic concentration (CC50) at 24 h in “HepG2 cytotoxicity assay” (HepG2 cells) is greater than 200 µM.

With `FC(F)(F)Oc1ccc(-c2cnc3cc(Cl)ccc3c2Nc2ccc(C3CN(Cc4ccccc4)CCO3)cc2)cc1` (centres unmarked) [Compound 16, N-(4-(4-benzylmorpholin-2-yl)phenyl)-7-chloro-3-(4-(trifluoromethoxy)phenyl)quinolin-4-amine], the CC50 at 24 h in “HepG2 cytotoxicity assay” (HepG2 cells) is greater than 200 µM.

Regarding `CCC(C)N1CCC(c2ccc(Nc3ccnc4cc(Cl)ccc34)cc2)CC1` (centres unmarked) [Compound 44, N-(4-(1-(sec-butyl)piperidin-4-yl)phenyl)-7-chloroquinolin-4-amine], in “HepG2 cytotoxicity assay” (HepG2 cells), the cytotoxic concentration (CC50) at 24 h was greater than 200 µM. The compound further came in with a CLint scaled at 1 μM in data set [1] (setting [6]) of 98.3 mL/min/kg. Besides, in the data set on Plasmodium yoelii [2], the inhibition in vivo at 2.5 mg/kg was 71%.

With `CC(C)(C)N1CCN(c2ccc(Nc3ccnc4cc(Cl)ccc34)cc2)CC1` [Compound 31, N-(4-(4-(tert-butyl)piperazin-1-yl)phenyl)-7-chloroquinolin-4-amine], the 50% cytotoxic concentration (CC50) at 24 h in the data set “HepG2 cytotoxicity assay” (HepG2 cells) is greater than 200 µM. The “t1/2 (microsomal stability)” value in data set [1] (pooled murine liver microsomes, 1 μM, 0.5 mg/mL protein, 37 °C, 1 h) is “∞”. Besides, the “compound metabolized over the course of the microsomal experiment” value in data set [1] (pooled murine liver microsomes, 1 h) is “no detectable amount of compound was metabolized”. Further, the inhibition in vivo at 2.5 mg/kg in the data set on Plasmodium yoelii [2] came to 30%. Besides, in the data set on Plasmodium yoelii [3], the “ED50 v Py” value worked out at 4.0 mg/kg/day and the “ED90 v Py” value was 7.6 mg/kg/day.

In the data set “HepG2 cytotoxicity assay” (HepG2 cells), `Clc1ccc2c(Nc3ccc(N4CCN(Cc5ccccc5)CC4)cc3)ccnc2c1` [Compound 17, N-(4-(4-benzylpiperazin-1-yl)phenyl)-7-chloroquinolin-4-amine] returned a half-maximal cytotoxic concentration (CC50) at 24 h greater than 200 µM. This compound also returned an intrinsic clearance (CLint scaled) at 1 μM in data set [1] (setting [6]) of 392 mL/min/kg. Moreover, the inhibition in vivo at 2.5 mg/kg with Plasmodium yoelii [2] was 0%.

For the compound `FC(F)(F)c1ccc(N2CCN(c3ccc(Nc4ccnc5cc(Cl)ccc45)cc3)CC2)cc1` [Compound 32, 7-chloro-N-(4-(4-(4-(trifluoromethyl)phenyl)piperazin-1-yl)phenyl)quinolin-4-amine], the CC50 at 24 h in the data set “HepG2 cytotoxicity assay” (HepG2 cells) was greater than 200 µM.

On to `Clc1ccc2c(Nc3ccc(C4CCNCC4)cc3)ccnc2c1` [Compound 39, 7-chloro-N-(4-(piperidin-4-yl)phenyl)quinolin-4-amine], for which the CC50 at 24 h in the data set “HepG2 cytotoxicity assay” (HepG2 cells) is 58 µM.

With `CN1CCN(c2ccc(Nc3ccnc4cc(Cl)ccc34)cc2)CC1` [Compound 21, 7-chloro-N-(4-(4-methylpiperazin-1-yl)phenyl)quinolin-4-amine], in data set [1] (setting [6]), the CLint scaled at 1 μM was 3780 mL/min/kg.

With `CCN1CCOCC1c1ccc(Nc2ccnc3cc(Cl)ccc23)cc1` (centres unmarked) [Compound 13, 7-chloro-N-(4-(4-ethylmorpholin-3-yl)phenyl)quinolin-4-amine], in the data set “HepG2 cytotoxicity assay” (HepG2 cells), the CC50 at 24 h is greater than 200 µM.

In the case of `CCN(CC)CCCC(C)Nc1ccnc2cc(Cl)ccc12` (centres unmarked) [Compound 1, chloroquine], the half-maximal inhibitory concentration (IC50) in data set [4] was 0.0096 ± 0.002 µM.

In data set [1] (setting [6]), `CCN1CCC(c2ccc(Nc3ccnc4cc(Cl)ccc34)cc2)CC1` [Compound 40, 7-chloro-N-(4-(1-ethylpiperidin-4-yl)phenyl)quinolin-4-amine] came in with an intrinsic metabolic clearance (CLint scaled) at 1 μM of 497 mL/min/kg. Also, in the data set with Plasmodium yoelii [2], the inhibition in vivo at 2.5 mg/kg was determined as 13%. In addition, in the data set on Plasmodium yoelii [3], the “ED50 v Py” value worked out at 1.8 mg/kg/day and the “ED90 v Py” value was determined as 13 mg/kg/day.

For the compound `Clc1ccc2c(Nc3ccc(C4COCCN4Cc4ccccc4)cc3)ccnc2c1` (centres unmarked) [Compound 12, N-(4-(4-benzylmorpholin-3-yl)phenyl)-7-chloroquinolin-4-amine], the CC50 at 24 h in “HepG2 cytotoxicity assay” (HepG2 cells) is greater than 200 µM.

In “HepG2 cytotoxicity assay” (HepG2 cells), `CCCCN1CCC(c2ccc(Nc3ccnc4cc(Cl)ccc34)cc2)CC1` [Compound 42, N-(4-(1-butylpiperidin-4-yl)phenyl)-7-chloroquinolin-4-amine] displayed a CC50 at 24 h greater than 200 µM. Further, in data set [1] (setting [6]), the intrinsic clearance (CLint scaled) at 1 μM stood at 130 mL/min/kg. Besides, the inhibition in vivo at 2.5 mg/kg in the data set with Plasmodium yoelii [2] stood at 53%.

In turn, `CC(C)N1CCC(c2ccc(Nc3ccnc4cc(Cl)ccc34)cc2)CC1` [Compound 35, 7-chloro-N-(4-(1-isopropylpiperidin-4-yl)phenyl)quinolin-4-amine] displayed a CC50 at 24 h in the data set “HepG2 cytotoxicity assay” (HepG2 cells) greater than 200 µM. The compound further showed a CLint scaled at 1 μM in data set [1] (setting [6]) of 124 mL/min/kg. In addition, in the data set with Plasmodium yoelii [2], the inhibition in vivo at 2.5 mg/kg came out at 48%. In the data set with Plasmodium yoelii [3], the “ED50 v Py” value turned out to be 1.1 mg/kg/day and the “ED90 v Py” value is 4.1 mg/kg/day.

`Clc1ccc2c(Nc3ccc(N4CCOCC4)cc3)ccnc2c1` [Compound 7, 7-chloro-N-(4-morpholinophenyl)quinolin-4-amine] displayed a CC50 at 24 h in “HepG2 cytotoxicity assay” (HepG2 cells) greater than 200 µM.

For the compound `CCN1CCN(c2ccc(Nc3ccnc4cc(Br)ccc34)cc2)CC1` [Compound 25, 7-bromo-N-(4-(4-ethylpiperazin-1-yl)phenyl)quinolin-4-amine], the midpoint of cytotoxicity in the data set “HepG2 cytotoxicity assay” (HepG2 cells), the CC50 at 24 h, lay at 48 µM.

Regarding `CC(C)(C)OC(=O)N1CCN(c2ccc(Nc3ccnc4cc(Cl)ccc34)cc2)CC1` [Compound 36, tert-butyl 4-(4-((7-chloroquinolin-4-yl)amino)phenyl)piperazine-1-carboxylate], the half-maximal cytotoxic concentration (CC50) at 24 h in “HepG2 cytotoxicity assay” (HepG2 cells) was greater than 200 µM.

As for `CCN1CCN(c2ccc(Nc3ccnc4cc(C(F)(F)F)ccc34)cc2)CC1` [Compound 26, N-(4-(4-ethylpiperazin-1-yl)phenyl)-7-(trifluoromethyl)quinolin-4-amine], the half-maximal cytotoxic concentration (CC50) at 24 h in the data set “HepG2 cytotoxicity assay” (HepG2 cells) was greater than 200 µM.

`CCCN1CCC(c2ccc(Nc3ccnc4cc(Cl)ccc34)cc2)CC1` [Compound 41, 7-chloro-N-(4-(1-propylpiperidin-4-yl)phenyl)quinolin-4-amine] gave a 50% cytotoxic concentration (CC50) at 24 h in the data set “HepG2 cytotoxicity assay” (HepG2 cells) greater than 200 µM. This compound also gave an intrinsic metabolic clearance (CLint scaled) at 1 μM in data set [1] (setting [6]) of 78 mL/min/kg. Besides, in the data set with Plasmodium yoelii [2], the “% Py Suppression” value amounted to 39% and the inhibition in vivo at 2.5 mg/kg was 39%.

`FC(F)(F)Oc1ccc(-c2cnc3cc(Cl)ccc3c2Nc2ccc(N3CCOCC3)cc2)cc1` [Compound 8, 7-chloro-N-(4-morpholinophenyl)-3-(4-(trifluoromethoxy)phenyl)quinolin-4-amine] registered a CC50 at 24 h in “HepG2 cytotoxicity assay” (HepG2 cells) greater than 200 µM.

`Clc1ccc2c(Nc3ccc(N4CCN(C5CC5)CC4)cc3)ccnc2c1` [Compound 33, 7-chloro-N-(4-(4-cyclopropylpiperazin-1-yl)phenyl)quinolin-4-amine]: in the data set “HepG2 cytotoxicity assay” (HepG2 cells), the half-maximal cytotoxic concentration (CC50) at 24 h was greater than 200 µM.

For `CC(C)CN1CCC(c2ccc(Nc3ccnc4cc(Cl)ccc34)cc2)CC1` [Compound 43, 7-chloro-N-(4-(1-isobutylpiperidin-4-yl)phenyl)quinolin-4-amine], the 50% cytotoxic concentration (CC50) at 24 h in “HepG2 cytotoxicity assay” is greater than 200 µM. In the data set with Plasmodium yoelii [2], the “% Py Suppression” value is given as 91% and the inhibition in vivo at 2.5 mg/kg is 91%. In the data set on Plasmodium yoelii [5], the “SDC (single dose cure)” value turned out to be 50 mg/kg.

As to `CC(C)CN1CCN(c2ccc(Nc3ccnc4cc(Cl)ccc34)cc2)CC1` [Compound 45, 7-chloro-N-(4-(4-isobutylpiperazin-1-yl)phenyl)quinolin-4-amine], in “HepG2 cytotoxicity assay” (HepG2 cells), the CC50 at 24 h was greater than 200 µM. In data set [1] (setting [6]), this compound returned an intrinsic clearance (CLint scaled) at 1 μM of 843 mL/min/kg and a half-life at 1 μM of 6.47 min. For the same compound, the “% Py Suppression” value in the data set on Plasmodium yoelii [2] was 30%.

For the compound `CCN1CCN(c2ccc(Nc3ccnc4cc(Cl)c(Cl)cc34)cc2)CC1` [Compound 24, 6,7-dichloro-N-(4-(4-ethylpiperazin-1-yl)phenyl)quinolin-4-amine], in the data set “HepG2 cytotoxicity assay” (HepG2 cells), the cytotoxic concentration (CC50) at 24 h was greater than 200 µM.

Consider `CCN1CCN(c2ccc(Nc3ccnc4cc(Cl)ccc34)cc2)CC1` [Compound 20, 7-chloro-N-(4-(4-ethylpiperazin-1-yl)phenyl)quinolin-4-amine], for which, in “HepG2 cytotoxicity assay” (HepG2 cells), the CC50 at 24 h was greater than 200 µM. The compound also had a CLint scaled at 1 μM in data set [1] (setting [6]) of 2930 mL/min/kg. Moreover, the inhibition in vivo at 2.5 mg/kg in the data set on Plasmodium yoelii [2] came to 60%. Besides, in the data set with Plasmodium yoelii [3], the “ED50 v Py” value came to 1.5 mg/kg/day and the “ED90 v Py” value was 8.4 mg/kg/day.

As for `CCN1CCOCC1c1ccc(Nc2c(-c3ccc(OC(F)(F)F)cc3)cnc3cc(Cl)ccc23)cc1` (centres unmarked) [Compound 14, 7-chloro-N-(4-(4-ethylmorpholin-3-yl)phenyl)-3-(4-(trifluoromethoxy)phenyl)quinolin-4-amine], the CC50 at 24 h in the data set “HepG2 cytotoxicity assay” (HepG2 cells) is greater than 200 µM.
